Consider 24 molecules from patent US8962608B2, “Cycloalkylnitrile pyrazole carboxamides as janus kinase inhibitors” (Merck Sharp & Dohme Corp., priority 2011, dated 2015).

The target in assay [1] is JAK2 (recombinant purified GST-tagged catalytic domain) (Homo sapiens (Human), UniProt O60674). Nature of the assay: biochemical.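 Also: biochemical JAK kinase assay with HTRF detection.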
Assay [2] addresses JAK1 (recombinant purified GST-tagged catalytic domain) (Homo sapiens (Human), UniProt P23458). Nature of the assay: biochemical.

JAK2 (recombinant purified GST-tagged catalytic domain), sequence (O60674 849-1124): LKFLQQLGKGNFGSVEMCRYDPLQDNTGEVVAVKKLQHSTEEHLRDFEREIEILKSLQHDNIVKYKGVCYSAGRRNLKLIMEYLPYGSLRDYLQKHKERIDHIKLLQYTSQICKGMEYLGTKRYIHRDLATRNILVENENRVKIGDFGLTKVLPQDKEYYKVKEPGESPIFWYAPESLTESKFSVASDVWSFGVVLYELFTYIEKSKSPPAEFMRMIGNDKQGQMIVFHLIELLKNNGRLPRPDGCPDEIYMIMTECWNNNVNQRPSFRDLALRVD
JAK1 (recombinant purified GST-tagged catalytic domain), sequence (P23458 875-1153): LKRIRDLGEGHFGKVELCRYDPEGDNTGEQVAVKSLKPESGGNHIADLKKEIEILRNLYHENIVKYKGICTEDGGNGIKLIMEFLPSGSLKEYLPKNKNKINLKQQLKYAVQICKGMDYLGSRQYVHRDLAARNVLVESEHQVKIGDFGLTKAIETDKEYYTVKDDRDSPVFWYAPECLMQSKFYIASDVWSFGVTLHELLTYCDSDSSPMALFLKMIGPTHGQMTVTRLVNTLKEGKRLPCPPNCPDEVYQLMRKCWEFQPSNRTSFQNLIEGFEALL

Turning to `CS(=O)(=O)N[C@@H]1CC[C@H](n2cc(C(N)=O)c(Nc3ccc(Cl)cc3)n2)[C@@H](C#N)C1` (racemic) [Example 38-3, 3-[(4-chlorophenyl)amino]-1-{(1S,2S,4R and 1R,2R,4S)-2-cyano-4-[(methylsulfonyl)amino]cyclohexyl}-1H-pyrazole-4-carboxamide], the values for the IC50 in assay [1] and in assay [2] were 8 nM and 0.9 nM, respectively.

Regarding `N#C[C@H]1CCCC[C@@H]1n1cc(C(N)=O)c(Nc2ccc(Cl)c(Cl)c2)n1` (single isomer, unassigned) [Example 17-49, 1-[(1S,2S or 1R,2R)-2-cyanocyclohexyl]-3-[(3,4-dichlorophenyl)amino]-1H-pyrazole-4-carboxamide], the IC50 worked out at 93 nM in assay [1] and 17 nM in assay [2].

Regarding `N#C[C@H]1C[C@H](O)CC[C@@H]1n1cc(C(N)=O)c(Nc2ccc([C@H](O)C(F)(F)F)cc2)n1` (single isomer, unassigned) [Example 25-13, 1-[(1S,2S,4R or 1R,2R,4S)-2-cyano-4-hydroxycyclohexyl]-3-({4-[(1S or 1R)-2,2,2-trifluoro-1-hydroxyethyl]phenyl}amino)-1H-pyrazole-4-carboxamide], the IC50 in assay [1] was determined as 3 nM; in assay [2], 0.25 nM.

`N#C[C@H]1CCCC[C@@H]1n1cc(C(N)=O)c(Nc2ccnc(C(F)(F)F)c2)n1` (racemic) [Example 17-3, 1-[(1S,2S and 1R,2R)-2-Cyanocyclohexyl]-3-{[2-(trifluoromethyl)pyridin-4-yl]amino}-1H-pyrazole-4-carboxamide]: the figures for the IC50 in assay [1] and in assay [2] were 123 nM and 19 nM, respectively.

Take `N#C[C@H]1CCCC[C@@H]1n1cc(C(N)=O)c(Nc2ccc(S(=O)(=O)NCc3ccc(C(F)(F)F)cc3)cc2)n1` (single isomer, unassigned) [Example 17-96, 1-[(1R,2R or 1S,2S)-2-cyanocyclohexyl]-3-[(4-{[4-(trifluoromethyl)benzyl]sulfamoyl}phenyl)amino]-1H-pyrazole-4-carboxamide]: the IC50 is 7 nM in assay [1] and 2 nM in assay [2].

In the case of `N#C[C@H]1C[C@@](O)(C2CC2)CC[C@@H]1n1cc(C(N)=O)c(Nc2ccc(Cl)c(F)c2)n1` (single isomer, unassigned) [Example 32-1, 3-[(4-Chloro-3-fluorophenyl)amino]-1-[(1S,2S,4S or 1R,2R,4R)-2-cyano-4-cyclopropyl-4-hydroxycyclohexyl]-1H-pyrazole-4-carboxamide], the IC50 in assay [1] was determined as 59 nM; in assay [2], 13 nM.

Turning to `N#C[C@H]1C[C@@H](C(=O)NC2COC2)CC[C@@H]1n1cc(C(N)=O)c(Nc2ccc(Cl)cc2)n1` (single isomer, unassigned) [Example 35-7, 3-[(4-chlorophenyl)amino]-1-[(1S,2S,4S or 1R,2R,4R)-2-cyano-4-(oxetan-3-ylcarbamoyl)cyclohexyl]-1H-pyrazole-4-carboxamide], the IC50 in assay [1] was 243 nM; in assay [2] it was 33 nM.

Regarding `N#C[C@H]1C[C@@H](N2CCOCC2)CCC1n1cc(C(N)=O)c(Nc2ccc(S(=O)(=O)C(F)(F)F)cc2)n1` (mixture of isomers) [Example 27-13, 1-[(1S,2S,4S and 1R,2R,4R)-2-cyano-4-(morpholin-4-yl)cyclohexyl]-3-({4-[(trifluoromethyl)sulfonyl]phenyl)amino)-1H-pyrazole-4-carboxamide], the IC50 in assay [1] amounted to 6 nM; in assay [2] it was 0.3 nM.

On to `CN[C@@H]1CCC(n2cc(C(N)=O)c(Nc3ccc(F)cc3)n2)[C@@H](C#N)C1` (mixture of isomers) [Example 27-3, 1-[(1S,2S,4R and 1R,2R,4S)-2-cyano-4-(methylamino)cyclohexyl]-3-[(4-fluorophenyl)amino]-1H-pyrazole-4-carboxamide], for which the IC50 in assay [1] was determined as 25 nM; in assay [2], 0.8 nM.

With `N#C[C@H]1C[C@@H](C(=O)NC(C2CC2)C2CC2)CC[C@@H]1n1cc(C(N)=O)c(Nc2ccc(Cl)cc2)n1` (single isomer, unassigned) [Example 35-21, 3-[(4-chlorophenyl)amino]-1-{(1S,2S,4S or 1R,2R,4R)-2-cyano-4-[(dicyclopropylmethyl)carbamoyl]cyclohexyl}-1H-pyrazole-4-carboxamide], the IC50 came to 500 nM in assay [1] and 25 nM in assay [2].

Consider `N#C[C@H]1CCCC[C@@H]1n1cc(C(N)=O)c(Nc2ccc(F)c(F)c2)n1` (racemic) [Example 17-100, 1-[(1S,2S and 1R,2R)-2-cyanocyclohexyl]-3-[(3,4-difluorophenyl)amino]-1H-pyrazole-4-carboxamide], for which the values for the IC50 in assay [1] and in assay [2] were 34 nM and 4 nM, respectively.

As for `CC(=O)N1CCN(S(=O)(=O)c2ccc(Nc3nn([C@H]4CCCC[C@@H]4C#N)cc3C(N)=O)cc2)CC1` (single isomer, unassigned) [Example 17-89, 3-({4-[(4-acetylpiperazin-1-yl)sulfonyl]phenyl}amino)-1-[(1R,2R or 1S,2S)-2-cyanocyclohexyl]-1H-pyrazole-4-carboxamide], the IC50 was determined as 1 nM in assay [1] and 0.5 nM in assay [2].

For the molecule `CC1CN([C@H]2CC[C@H](n3cc(C(N)=O)c(Nc4ccc(C(F)(F)F)cc4)n3)[C@@H](C#N)C2)C1` (single isomer, unassigned) [Example 28-121, 1-[(1S,2S,4S or 1R,2R,4R)-2-cyano-4-(3-methylazetidin-1-yl)cyclohexyl]-3-{[4-(trifluoromethyl)phenyl]amino}-1H-pyrazole-4-carboxamide], the IC50 in assay [1] was 61 nM; in assay [2], 1 nM.

Regarding `N#C[C@@H]1C[C@@H](NC2CCC2)CC[C@H]1n1cc(C(N)=O)c(Nc2ccc(C(F)(F)F)cc2)n1` (single isomer, unassigned) [Example 30-18, 1-[(1R,2R,4S or 1S,2S,4R)-2-cyano-4-(cyclobutyl-amino)cyclohexyl]-3-{[4-(trifluoromethyl)phenyl]amino}-1H-pyrazole-4-carboxamide], the IC50 was determined as 136 nM in assay [1] and 2 nM in assay [2].

For `COC(C)(C)CN[C@H]1CCC(n2cc(C(N)=O)c(Nc3ccc(Cl)cc3)n2)[C@@H](C#N)C1` (single isomer, unassigned) [Example 28-228, 3-[(4-chlorophenyl)amino]-1-{(1S,2S,4S or 1R,2R,4R)-2-cyano-4-[(2-methoxy-2-methylpropyl)amino]cyclo-hexyl}-1H-pyrazole-4-carboxamide], the IC50 was 48 nM in assay [1] and 2 nM in assay [2].

For the molecule `C[C@H](N[C@H]1CC[C@H](n2cc(C(N)=O)c(Nc3ccc(Cl)cc3)n2)[C@@H](C#N)C1)C1CC1` (single isomer, unassigned) [Example 28-119, 3-[(4-chlorophenyl)amino]-1-[(1S,2S,4S or 1R,2R,4R)-2-cyano-4-{[(1R)-1-cyclopropylethyl]amino}cyclo-hexyl]-1H-pyrazole-4-carboxamide], the IC50 in assay [1] worked out at 85 nM; in assay [2], 1 nM.

For `N#C[C@H]1C[C@H](N2CCC2)CC[C@@H]1n1cc(C(N)=O)c(Nc2ccc(C(F)(F)F)cc2)n1` (single isomer, unassigned) [Example 28-131, 1-[(1S,2S,4R or 1R,2R,4S)-4-azetidin-1-yl-2-cyanocyclohexyl]-3-{[4-(trifluoromethyl)phenyl]amino}-1H-pyrazole-4-carboxamide], the 50% inhibitory concentration (IC50) in assay [1] amounted to 51 nM; in assay [2], 0.9 nM.

Turning to `N#C[C@@H]1C[C@H](OCC2CC2)CC[C@@H]1n1cc(C(N)=O)c(Nc2ccnc(F)c2)n1` (single isomer, unassigned) [Example 26-4, 1-[(1S,2R,4R or 1R,2S,4S)-2-cyano-4-(cyclopropylmethoxy)cyclohexyl]-3-[(2-fluoropyridin-4-yl)amino]-1H-pyrazole-4-carboxamide], the values for the IC50 in assay [1] and in assay [2] were 74 nM and 21 nM, respectively.

On to `N#C[C@H]1CCCC[C@@H]1n1cc(C(N)=O)c(Nc2ccc(S(=O)(=O)NCc3ccncc3)cc2)n1` (single isomer, unassigned) [Example 17-86, 1-[(1R,2R or 1S,2S)-2-cyanocyclohexyl]-3-({4-[(pyridin-4-ylmethyl)sulfamoyl]phenyl}amino)-1H-pyrazole-4-carboxamide], for which the IC50 in assay [1] was 0.95 nM; in assay [2] it was 0.25 nM.

As to `CN[C@H]1CC[C@H](n2cc(C(N)=O)c(Nc3ccc(Cl)cc3)n2)[C@@H](C#N)C1` (single isomer, unassigned) [Example 28-40, 3-[(4-chlorophenyl)amino]-1-[(1S,2S,4S or 1R,2R,4R)-2-cyano-4-(methylamino)cyclohexyl]-1H-pyrazole-4-carboxamide], the IC50 in assay [1] came to 16 nM; in assay [2] it was 0.7 nM.

`N#C[C@H]1C[C@H](O)CCC1n1cc(C(N)=O)c(Nc2ccccc2)n1` (mixture of isomers) [Example 2-2, 1-[(1S,2S,4R and 1R,2R,4S)-2-cyano-4-hydroxycyclohexyl]-3-(phenylamino)-1H-pyrazole-4-carboxamide]: the IC50 in assay [1] turned out to be 70 nM; in assay [2], 6 nM.

Consider `Cn1cc(-c2ccc(Nc3nn(C4CCCC[C@@H]4C#N)cc3C(N)=O)cn2)cn1` (mixture of isomers) [Example 21-2, 1-[(1S,2S and 1R,2R)-2-cyanocyclohexyl]-3-{[6-(1-methyl-1H-pyrazol-4-yl)pyridin-3-yl]amino)-1H-pyrazole-4-carboxamide], for which the values for the IC50 in assay [1] and in assay [2] were 15 nM and 2 nM, respectively.

On to `N#C[C@H]1CCCC[C@@H]1n1cc(C(N)=O)c(Nc2cnc3cc(F)ccc3c2)n1` (single isomer, unassigned) [Example 17-41, 1-[(1S,2S or 1R,2R)-2-cyanocyclohexyl]-3-[(7-fluoroquinolin-3-yl)amino]-1H-pyrazole-4-carboxamide], for which the results for the IC50 in assay [1] and in assay [2] were 16 nM and 2 nM, respectively.

Turning to `N#C[C@@H]1C[C@@H](NC2COC2)CC[C@H]1n1cc(C(N)=O)c(Nc2ccc(C(F)(F)F)cc2)n1` (single isomer, unassigned) [Example 30-17, 1-[(1R,2R,4S or 1S,2S,4R)-2-cyano-4-(oxetan-3-ylamino)cyclohexyl]-3-{[4-(trifluoromethyl)phenyl]amino}-1H-pyrazole-4-carboxamide], the results for the IC50 in assay [1] and in assay [2] were 17 nM and 0.85 nM, respectively.
